Laboratory results as given in article PMC9012943, “Oral remdesivir derivative VV116 is a potent inhibitor of respiratory syncytial virus with efficacy in mouse model” (Signal Transduction and Targeted Therapy, 2022).
Like-named read-outs stand apart in the source and are kept apart here.

What was measured:
[1] = Pharmacokinetic study in Balb/c mice; assay type: in vivo; details: for Cmax: X1 in blood
Experimental: A total of nine Balb/c mice (N = 3 for each group, male) were divided into three groups, and fasted for 12 h before dosing. The three groups received oral dose of VV116 dissolved in 40%PEG400+10% Kolliphor® HS15+50% ultrapure water at 25 mg/kg, 50 mg/kg and 100 mg/kg, respectively. At 5 min, 0.25, 0.5, 1.0, 2.0, 4.0, 6.0, 8.0, and 24 h post-dosing, blood samples were collected from the jugular vein or the submandibular vein into EDTA-K2 tubes, and immediately mixed with acetonitrile (20 µL blood + 80 μL acetonitrile). The concentrations of analytes in the blood were analyzed by LC-MS/MS.

RSV A2 = assay: Inhibition of RSV A2 replication in A549 cells (qRT-PCR); assay type: cell-based, respiratory syncytial virus
Experimental: A549, HEp-2 or NHBE cells were plated into 48 well-plate and incubated overnight. Upon reaching 80% cell confluence, cells were infected RSV A2 (at an MOI of 2 in A549, MOI of 0.5 in HEp-2, and MOI of 1 in NHBE cells) for 2 h after cells were incubated for 1 h with varying concentrations of drugs. Then, the virus-drug mixture was removed, and cells were cultured with drug-containing medium. At 48 h post inoculation, total RNAs were extracted from cells and then in reverse transcription using PrimeScript RT reagent Kit with gDNA Eraser (TaKaRa). For determining the viral copies, absolute quantitative RT-PCR was performed with TB Green® Premix Ex Taq^TM II (TaKaRa). RSV A2 F fragment was quantified with primers 5’-[…]-3’; and 5’-[…]-3’

[2] = Toxicokinetics in SD rats; assay type: in vivo
Experimental: Groups of male and female SD rats (4 animals/sex/group) received repeated oral doses of VV116 (dissolved in 40%PEG400+10% Kolliphor® HS15+50% ultrapure water) at 100 (low), 200 (mild) and 500 mg/kg/d (high) for 14 days. At day 1 and day 14, blood samples were collected from the jugular vein into EDTA-K2 tubes at various time points post-dose. Plasma samples were obtained following general procedures and the concentrations of analytes in the samples were analyzed by LC-MS/MS.

[3] = Cellular toxicity in A549 cells (WST-8 cell viability); assay type: cell-based; details: human; A549 cells, 48 h; read-out: CC50
Experimental: Cell viability was performed in 96-well plate with triplicate for each concentration. All drugs were diluted 2 times with 9 gradients starting at 500 micromores in maintenance medium (DMEM containing 2% FBS). After 48 h incubation, the supernatant was removed, and 10 μL WST-8 (2-(2-methoxy-4-(phenyl)-3-(4-(phenyl) to 5 (2, 4-sulpho benzene) -2 h-tetrazolium monosodium salt) in maintenance medium was added in medium. Plates were measured at 450 nm wavelength using spectrophotometer (BioTek) after 2 h incubation, and cell viability was calculated.

[4] = Tissue distribution study in Balb/c mice; assay type: in vivo; details: VV116 oral 100 mg/kg
Experimental: A total of thirty Balb/c mice were divided into five groups (3 animals/sex/group). VV116 was intragastrically administered at 100 mg/kg dissolved in 40%PEG400+10% Kolliphor® HS15+50%. At 0 (not administered), 0.25, 2, 6, and 24 h post-dosing, the five groups of mice were anesthetized, respectively. Blood samples were collected, and tissues including liver and lung were harvested. Tissue samples were individually homogenized, and blood samples were processed as above. The concentrations of X1 in liver, lung and blood were analyzed by LC-MS/MS.

## [2H]c1cc([C@]2(C#N)O[C@H](CO)[C@@H](O)[C@H]2O)n2ncnc(N)c12 [X1]
[1]; Balb/c mice, following oral administration of VV116
  Time for blood concentration of X1 to reach Cmax: ≤ 0.5 h
[1]; male, mouse, whole blood, po, Balb/c mice, VV116 p.o. 25 mg/kg, read-out: Cmax
  Cmax: 5360 ng/mL
[1]; male, mouse, whole blood, X1, Balb/c mice, VV116 oral 25 to 100 mg/kg, read-out: elimination half-life
  half-life: 2.3 to 4.25 h
[1]; male, mouse, whole blood, Balb/c mice, VV116 oral 25 mg/kg, read-out: mean Cmax
  Cmax: 18.4 µM
RSV A2
  SI: > 314
RSV A2; human respiratory syncytial virus, RSV A2
  EC90: 3.56 ± 0.63 µM
RSV A2; human respiratory syncytial virus, RSV A2 MOI 2, 48 h
  EC50: 1.59 ± 0.49 µM
[2]; both sexes, rat, plasma, po, X1, SD rats, VV116 p.o. 200 mg/kg, Total, Day 1
  AUC0-t: 85200 ng·h/mL
[2]; in vivo
  AUC0–t of X1 at rat NOAEL (200 mg/kg) relative to that at 50 mg/kg in mice: ~ 3.5 folds
[3]
  CC50 at 48 h: > 500 µM
[4]
  concentration of X1 in the lung relative to that in the liver: about half
